This note sets out measurements from ChEMBL document CHEMBL1146379, “Solid phase synthesis and SAR of small molecule agonists for the GPR40 receptor” (Bioorg Med Chem Lett, 2007).

The nature of data set [1]: Half life in iv dosed rat. The class given is ADME, organism-based. The note with it: in vivo.
Data set [2] in a line: Distribution coefficient, log D at pH 7.4. The data set is classed as physicochemical. The settings on record: octanol/water.
A further data set has as its target Cytochrome P450 3A4 (Homo sapiens, UniProt P08684). The data set is described as follows: Inhibition of CYP3A4. The data set is classed as ADME.
The nature of data set [3]: Protein binding in rat plasma by ultrafiltration assay. The data set is classed as ADME, cell-free. The settings on record: read-out: PB.
The target of another data set is Cytochrome P450 2D6 (Homo sapiens, UniProt P10635). The data set is described as follows: Inhibition of CYP2D6. The class given is ADME.
Data set [4] deals with T1, Free fatty acid receptor 3 (Homo sapiens, UniProt O14843).
T1 sequence (O14843 whole entry): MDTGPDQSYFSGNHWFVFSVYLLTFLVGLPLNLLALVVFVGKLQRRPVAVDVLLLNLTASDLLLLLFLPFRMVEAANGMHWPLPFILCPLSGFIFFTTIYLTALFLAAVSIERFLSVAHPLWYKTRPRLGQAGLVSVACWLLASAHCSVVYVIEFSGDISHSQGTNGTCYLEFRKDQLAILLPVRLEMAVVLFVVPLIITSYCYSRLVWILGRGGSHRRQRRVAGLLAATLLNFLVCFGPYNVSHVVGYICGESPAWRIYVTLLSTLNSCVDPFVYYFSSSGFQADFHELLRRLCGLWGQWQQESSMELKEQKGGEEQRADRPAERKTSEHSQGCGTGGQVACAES
The data set is described as follows: Activity at GPR41 receptor.

The species named for the next data set is Homo sapiens. The data set is described as follows: Selectivity for GPR40 over GPR43.
Another data set addresses Cytochrome P450 2C9 (Homo sapiens, UniProt P11712). The data set is described as follows: Inhibition of CYP2C9. The data set is classed as ADME.
Data set [5] addresses Prostaglandin E2 receptor EP4 subtype (Homo sapiens, UniProt P35408). The data set is described as follows: Activity at EP4 receptor.
In the next data set the target is T2, Cytochrome P450 1A2 (Homo sapiens, UniProt P05177).
T2 sequence (P05177 whole entry): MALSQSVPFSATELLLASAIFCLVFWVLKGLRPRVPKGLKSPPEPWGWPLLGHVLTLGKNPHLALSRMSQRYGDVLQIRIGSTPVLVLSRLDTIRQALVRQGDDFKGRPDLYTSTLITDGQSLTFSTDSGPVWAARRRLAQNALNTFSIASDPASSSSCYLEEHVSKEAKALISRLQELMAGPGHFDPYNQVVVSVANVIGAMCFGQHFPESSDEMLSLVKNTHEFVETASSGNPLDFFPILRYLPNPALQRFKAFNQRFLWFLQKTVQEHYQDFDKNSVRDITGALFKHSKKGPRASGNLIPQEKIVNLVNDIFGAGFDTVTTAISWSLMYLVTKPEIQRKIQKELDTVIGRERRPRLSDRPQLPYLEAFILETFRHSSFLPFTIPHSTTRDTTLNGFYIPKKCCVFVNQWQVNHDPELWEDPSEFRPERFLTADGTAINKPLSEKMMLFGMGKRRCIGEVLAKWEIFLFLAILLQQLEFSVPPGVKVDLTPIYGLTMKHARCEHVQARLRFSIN
The data set is described as follows: Inhibition of CYP1A2. The class given is ADME.

Data set [6] deals with T3, Peroxisome proliferator-activated receptor gamma (Homo sapiens, UniProt P37231).
T3 sequence (P37231 whole entry): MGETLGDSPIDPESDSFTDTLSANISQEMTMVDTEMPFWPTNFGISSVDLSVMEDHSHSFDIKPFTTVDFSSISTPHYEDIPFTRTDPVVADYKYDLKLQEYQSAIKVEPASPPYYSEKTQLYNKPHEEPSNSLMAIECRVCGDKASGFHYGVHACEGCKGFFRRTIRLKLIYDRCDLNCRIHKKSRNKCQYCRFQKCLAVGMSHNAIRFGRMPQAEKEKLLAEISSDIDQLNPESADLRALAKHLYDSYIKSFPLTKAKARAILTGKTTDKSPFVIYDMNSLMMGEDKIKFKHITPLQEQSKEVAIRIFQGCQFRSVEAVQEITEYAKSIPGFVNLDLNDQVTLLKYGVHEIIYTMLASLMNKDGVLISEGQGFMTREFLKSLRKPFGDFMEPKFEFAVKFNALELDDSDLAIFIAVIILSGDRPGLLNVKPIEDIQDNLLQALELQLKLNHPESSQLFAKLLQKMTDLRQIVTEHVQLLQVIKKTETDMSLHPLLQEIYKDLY
The data set is described as follows: Activity at PPARgamma receptor.

The next data set addresses Cytochrome P450 2C19 (Homo sapiens, UniProt P33261). The data set is described as follows: Inhibition of CYP2C19. The data set is classed as ADME.

Sequence of Cytochrome P450 2C9 (P11712 whole entry): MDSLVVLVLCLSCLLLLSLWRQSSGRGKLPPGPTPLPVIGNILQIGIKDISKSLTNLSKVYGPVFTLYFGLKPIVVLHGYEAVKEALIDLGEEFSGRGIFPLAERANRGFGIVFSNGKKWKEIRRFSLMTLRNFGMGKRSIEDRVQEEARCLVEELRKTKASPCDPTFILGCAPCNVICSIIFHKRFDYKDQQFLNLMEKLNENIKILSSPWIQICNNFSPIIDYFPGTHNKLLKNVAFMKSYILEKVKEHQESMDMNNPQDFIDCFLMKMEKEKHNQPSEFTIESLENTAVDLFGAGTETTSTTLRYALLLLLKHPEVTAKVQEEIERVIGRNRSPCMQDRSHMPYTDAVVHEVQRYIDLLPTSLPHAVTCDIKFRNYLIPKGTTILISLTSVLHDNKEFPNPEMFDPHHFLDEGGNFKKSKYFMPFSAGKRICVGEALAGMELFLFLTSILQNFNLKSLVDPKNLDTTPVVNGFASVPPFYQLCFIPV
Sequence of Cytochrome P450 2D6 (P10635 whole entry): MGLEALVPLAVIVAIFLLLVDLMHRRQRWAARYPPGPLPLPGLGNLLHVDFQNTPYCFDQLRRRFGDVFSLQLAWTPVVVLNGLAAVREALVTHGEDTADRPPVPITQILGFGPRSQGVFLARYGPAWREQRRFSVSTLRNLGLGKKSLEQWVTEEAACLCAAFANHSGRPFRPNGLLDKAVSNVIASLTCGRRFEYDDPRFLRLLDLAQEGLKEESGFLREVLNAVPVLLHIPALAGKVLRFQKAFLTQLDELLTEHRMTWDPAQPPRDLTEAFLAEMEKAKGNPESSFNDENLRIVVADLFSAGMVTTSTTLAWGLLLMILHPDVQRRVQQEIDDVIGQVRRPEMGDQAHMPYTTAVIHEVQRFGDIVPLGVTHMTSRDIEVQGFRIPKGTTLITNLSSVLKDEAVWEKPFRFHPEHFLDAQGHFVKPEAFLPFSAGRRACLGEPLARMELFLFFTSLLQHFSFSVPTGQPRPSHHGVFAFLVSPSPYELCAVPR
Sequence of Cytochrome P450 3A4 (P08684 whole entry): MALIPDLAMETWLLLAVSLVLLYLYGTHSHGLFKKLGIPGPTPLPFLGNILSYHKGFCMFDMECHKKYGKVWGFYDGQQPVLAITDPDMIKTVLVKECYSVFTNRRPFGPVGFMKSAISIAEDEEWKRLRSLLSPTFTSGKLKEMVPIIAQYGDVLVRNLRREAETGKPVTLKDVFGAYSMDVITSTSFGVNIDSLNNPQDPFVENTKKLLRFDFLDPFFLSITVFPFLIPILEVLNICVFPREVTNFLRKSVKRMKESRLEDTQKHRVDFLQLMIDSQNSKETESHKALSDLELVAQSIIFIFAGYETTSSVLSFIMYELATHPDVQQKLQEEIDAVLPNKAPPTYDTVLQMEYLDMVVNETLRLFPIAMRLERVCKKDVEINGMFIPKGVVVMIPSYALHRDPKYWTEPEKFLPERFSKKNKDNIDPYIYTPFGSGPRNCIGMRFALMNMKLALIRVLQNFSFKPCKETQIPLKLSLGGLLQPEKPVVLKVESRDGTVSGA
Sequence of Cytochrome P450 2C19 (P33261 whole entry): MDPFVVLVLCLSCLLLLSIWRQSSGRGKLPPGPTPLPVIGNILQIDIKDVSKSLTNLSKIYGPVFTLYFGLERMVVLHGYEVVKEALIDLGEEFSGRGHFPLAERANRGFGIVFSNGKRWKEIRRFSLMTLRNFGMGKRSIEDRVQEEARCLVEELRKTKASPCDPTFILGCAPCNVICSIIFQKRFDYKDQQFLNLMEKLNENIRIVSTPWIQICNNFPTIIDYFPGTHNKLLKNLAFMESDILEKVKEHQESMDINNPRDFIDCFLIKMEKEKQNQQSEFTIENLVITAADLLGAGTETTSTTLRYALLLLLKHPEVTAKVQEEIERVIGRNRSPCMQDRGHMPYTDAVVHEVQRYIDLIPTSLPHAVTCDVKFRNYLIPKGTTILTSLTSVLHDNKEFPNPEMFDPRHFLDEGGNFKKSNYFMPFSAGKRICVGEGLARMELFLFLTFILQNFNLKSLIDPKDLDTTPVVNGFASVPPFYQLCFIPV
Sequence of Prostaglandin E2 receptor EP4 subtype (P35408 whole entry): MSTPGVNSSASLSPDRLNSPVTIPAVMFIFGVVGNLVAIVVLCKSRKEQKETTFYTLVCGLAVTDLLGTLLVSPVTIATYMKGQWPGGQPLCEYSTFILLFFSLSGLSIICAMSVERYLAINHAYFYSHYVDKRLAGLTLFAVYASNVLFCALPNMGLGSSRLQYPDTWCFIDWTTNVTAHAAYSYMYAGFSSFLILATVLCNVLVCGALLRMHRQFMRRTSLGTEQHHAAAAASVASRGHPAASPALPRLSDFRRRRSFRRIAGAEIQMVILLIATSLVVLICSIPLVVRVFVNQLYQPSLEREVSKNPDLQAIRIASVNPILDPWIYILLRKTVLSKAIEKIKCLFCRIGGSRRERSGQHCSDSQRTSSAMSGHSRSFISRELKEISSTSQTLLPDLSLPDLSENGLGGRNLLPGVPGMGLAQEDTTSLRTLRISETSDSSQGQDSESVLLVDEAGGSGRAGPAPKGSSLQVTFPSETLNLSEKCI

By half-life is commonly meant the time needed for the level to fall by half in the phase considered. High values mean slow decline, low ones rapid decline. In general, logD refers to the decadic logarithm of the distribution of all forms, ionised or not, between an organic phase and buffer at a given pH. A higher logD goes with a more lipophilic compound. One may read the IC50 as the midpoint of a concentration-inhibition curve. The term EC50 denotes the midpoint of the concentration-response curve. The low end stands for a more potent agent, the high end for a less potent agent. Broadly, the Ki is a measure of affinity in units of concentration, obtained from inhibition or displacement. `O=C(O)CCc1ccc(NCc2cccc(Oc3ccccc3)c2)cc1` [GW9508]: in data set [1], the half-life was 5.3 h. In addition, in [2], the logD was found to be 1.95. For the same compound, the IC50 against Cytochrome P450 3A4, against Cytochrome P450 2D6, on Cytochrome P450 2C9, at Cytochrome P450 1A2 and at Cytochrome P450 2C19 was above 33 µM each time. In addition, the fraction unbound in [3] is below 0.004. Moreover, in data set [4], the EC50 was above 50.1 µM. The Fold change in the data set filed under Homo sapiens was above 500. Further, the Ki in data set [5] and in data set [6] was above 3.16 µM each time.
